Laboratory results as given in US6846640B2, “Time-resolved fluorescence assay for the detection of multimeric forms of A-beta 1-40” (Pharmacia & Upjohn Company, priority 2002, dated 2005).

Assays:
β amyloid = β amyloid (Homo sapiens, UniProt P05067); assay: β-amyloid aggregation ELISA protocol (Howlett et al.); type: biochemical; settings: Aβ incubated overnight, 6E10 antibody
Experimental: For the β-amyloid aggregation ELISA protocol (Howlett et al., supra), 96 uL diluted β amyloid solution (51 μg/ml) is added to a 96-well polystyrene plate in the presence of and absence of 2 μL of an aggregation inhibitor test compound diluted in DMSO. The Aβ is incubated overnight to allow for aggregation and an aliquot transferred to another 96-well polystyrene plate, precoated with anti-Aβ antibody (6E10, Senetek, Napa, Calif.) overnight, washed, and blocked with Dulbecco's PBS/1% BSA solution. […] The secondary, biotinylated antibody was bound with 200 μL Eu^3+-streptavidin (100 ng/ml) in DELFIA assay buffer, the excess washed off, and the plate developed in DELFIA enhancement solution and read on a TRF plate reader as outlined above.

β-amyloid 1-40 = molecular target: T1, β-amyloid 1-40 (Homo sapiens, UniProt P05067); assay: TRF aggregation assay for β-amyloid polypeptide aggregation; type: biochemical; settings: 50 ug/ml β-amyloid, 24 uM test compound, 2% DMSO, 37° C. for 24 hrs
T1 construct: Beta-amyloid 1-40 (Aβ) and biotin-labeled β-amyloid 1-40 peptides were purchased from Biosource; purchased Biosource (Camarillo, Calif.)
T1 sequence (P05067 672-711 limits assumed): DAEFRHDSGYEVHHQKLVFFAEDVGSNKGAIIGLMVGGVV
Experimental: Beta-amyloid 1-40 (Aβ) and biotin-labeled β-amyloid 1-40 peptides were purchased from Biosource (Camarillo, Calif.). β-amyloid and biotinylated amyloid stock solutions, diluted in 0.1% acetic acid and corrected for 80% peptide content, were diluted to 83 μg/ml and 42 μg/ml, respectively, in reaction buffer (Dulbecco's PBS pH 7.4, 0.02% Tween 20). An equal mixture of the two β-amyloid products was then brought to a final concentration of 62.5 μg/ml total β-amyloid, giving a final 2:1 ratio of unbiotinylated to biotinylated Aβ polypeptide. When analyzing aggregation in the presence of test compound, 5 ul of diluted test compound (120 uM in 10% DMSO) was added to each well being analyzed in a 384-well polystyrene plate (Nunc). Test compounds are added over a range of concentrations. Twenty microliters of the β-amyloid reaction mixture was dispensed into each well of the 384 well plate, giving the final assay conditions as 24 uM test compound, 2% DMSO, and 50 ug/ml β-amyloid in a final volume of 25 uL. Plates were then sealed with foil sealers (Corning), and incubated at 37° C. for 24 hrs. […] Plates were washed with reaction buffer and 75 uL of DELFIA Enhancement solution (Wallac) was added to each well and the plates read on TRF capable plate reader (excitation at 337 run and emission at 620 nm).

β amyloid, sequence (P05067 672-711 limits assumed): as above

Compound: CO[C@H]1/C=C/O[C@@]2(C)Oc3c(C)c(O)c4c(O)c(c(/C=N/N5CCN(C)CC5)c(O)c4c3C2=O)NC(=O)/C(C)=C\C=C\[C@H](C)[C@H](O)[C@@H](C)[C@@H](O)[C@@H](C)[C@H](OC(C)=O)[C@@H]1C [rifampicin]
- inhibition of Aβ aggregation (β amyloid): ~30%

Compound: QKLVFF [QKLVFF peptide]
- prevents Aβ aggregation (β-amyloid 1-40): 44%
